Experimental data from article PMC9966667, “Permeability Assessment of a High-Throughput Mucosal Platform” (Pharmaceutics, 2023).

Tests used:
[1] = PermeaPad + mucus permeability assay (cystic fibrosis mucus model on PermeaPad 96-well plate); assay type: in vitro ADME; conditions: for Effect of mucus on Papp: Papp vs. Papp mucus, significance at p < 0.05; for Effect of mucus on Papp / statistical significance of the difference in permeation with vs without mucus: Student's t-test; for Papp at 5 h: not told, PermeaPad + mucus model, donor 100 or 500 µM in 10 mM PB pH 7.4, 5% DMSO, single timepoint 5 h, mean (±SD), n>=3, read-out: Papp mucus ± SD • 10^6; for permeation in the presence of mucus versus without mucus: PermeaPad + mucus vs PermeaPad; for statistical significance of the difference in permeation with vs without mucus: p < 0.05
Method: The pathological mucus model produced by Bac3Gel Lda. was prepared as previously described. […] The mucin suspension was prepared in mQ water.
Next, 20 µL of the mucus mixture was pipetted into the donor compartment of the PermeaPad plate (i.e., PermeaPad + mucus, from here on). The donor plate was carefully shaken to homogeneously distribute the mucus over the entire surface of the well. This step is also useful to get rid of the air bubbles that can form during the mixing of the mucus reagents. Before running the permeation measurements, the mucus was allowed to crosslink overnight by storing the PermeaPad plate at 4 °C.
(§1) The permeability assay was conducted in the absence (i.e., PermeaPad) and presence (i.e., PermeaPad + mucus) of the pathological mucus model. Stock solutions of drugs were prepared at 10 mg/mL in DMSO; working solutions were prepared by diluting the stocks within soluble concentration ranges (either 100 or 500 µM) in a 10 mM phosphate buffer (PB) (pH 7.4, 5% DMSO). The donor compartments of the PermeaPad plate were then filled with 200 µL of the drug working solution, while the acceptor compartments were filled with 400 µL of PB buffer (5% DMSO). […] (1) Papp=dQ/dt/C0×A where dQ represents the quantity of drug expressed as moles permeated into the acceptor compartment at time t (18.000 s), C0 is the initial concentration in the donor compartment, and A is the area of the PermeaPad membrane (0.15 cm^2).
(§2) The concentration of the drug in each acceptor well was determined using a Varian HPLC equipped with a 410 autosampler and a C18 column (150 × 2 mm, […], 100) and detected on a Varian 320 MS TQ mass spectrometer equipped with an electrospray ionization (ESI) source operating in positive or negative mode. The detector was used in multiple-reaction monitoring (MRM). Mobile phases composed of acetonitrile and water, 0.1% formic acid, or ammonium acetate (5 mM, pH 6.6), were pumped at 200 µL/min, following a gradient program. The injection volume was 5 µL. Quantifications were achieved according to a seven-point calibration curve specific to each compound.
(§3) A minimum of three replicates were performed for each compound, with and without mucus. All the quantitative data are reported as the mean ± standard deviation (SD). Statistical significance was calculated by applying the Student’s t test; a p < 0.05 was considered to be statistically significant and is indicated with asterisks (i.e., * p < 0.05, ** p < 0.01, *** p < 0.001, **** p < 0.0001).

[2] = PermeaPad 96-well plate permeability assay (absence of mucus); assay type: in vitro ADME; conditions: for Papp at 5 h: not told, pH 7.4, PermeaPad without mucus
Method: as §1, §2, §3

mucins = system: mucins; set-up: method as in PMID 26169405, PMID 7535039, PMID 33405639; conditions: polycationic drugs; cited from earlier work
[3] = donor 100 or 500 µM in 10 mM PB pH 7.4, 5% DMSO, single timepoint 5 h, mean (±SD), n>=3, read-out: Papp ± SD • 10^6
[4] = 5 h, extremes of measured range, trametinib value set because below limit of detection, read-out: apparent permeability (Papp)

Compound | Effect of mucus on Papp [1] | Papp at 5 h [1] [×10⁻⁶ cm/s] | Papp at 5 h [2, 3] [×10⁻⁶ cm/s] | permeation in the presence of mucus versus without mucus [1] | interaction with mucins (mucins) | statistical significance of the difference in permeation with vs without mucus [1] | concentration in the acceptor compartment ([2]; PermeaPad, 5 h, HPLC-ESI-MS) | Papp at 5 h [2, 4] [×10⁻⁶ cm/s]
CCS(=O)(=O)N1CC(CC#N)(n2cc(-c3ncnc4[nH]ccc34)cn2)C1 [Baricitinib] | Reduced | 0.87 | 3.06 |  |  |  |  | 
C=CC(=O)N1CCN(c2nc(=O)n(-c3c(C)ccnc3C(C)C)c3nc(-c4c(O)cccc4F)c(F)cc23)[C@@H](C)C1 [Sotorasib] | None | 0.21 | 0.48 |  |  |  |  | 
NC(=O)c1nc(F)c[nH]c1=O [Favipiravir] | Increased | 6.18 | 5.15 | higher permeation in the presence of mucus |  |  |  | 
CN(C)C(=O)COC(=O)Cc1ccc(OC(=O)c2ccc(NC(=N)N)cc2)cc1 [Camostat] | Reduced | 0.81 | 2.16 |  |  |  |  | 
NC[C@H]1O[C@H](O[C@H]2[C@H](O)[C@@H](O[C@H]3O[C@H](CO)[C@@H](O)[C@H](N)[C@H]3O)[C@H](N)C[C@@H]2N)[C@H](N)C[C@@H]1O [tobramycin] |  |  |  |  | strongly interact with mucins |  |  | 
CC(CCc1ccccc1)NCC(O)c1ccc(O)c(C(N)=O)c1 (centres unmarked) [Labetalol] | Reduced | 1.11 | 1.81 |  |  |  |  | 
CN(C)[C@@H]1C(O)=C(C(N)=O)C(=O)[C@@]2(O)C(O)=C3C(=O)c4c(O)cccc4[C@@](C)(O)[C@H]3C[C@@H]12 [Tetracycline] | Reduced | 0.2 |  |  |  |  |  | 
polymyxin |  |  |  |  | strongly interact with mucins |  |  | 
CC(=O)Nc1ccc(O)cc1 [Acetaminophen] | Reduced | 1.77 | 4.55 |  |  |  |  | 
CC(C)NCC(O)COc1cccc2ccccc12 (centres unmarked) [Propranolol] | Reduced | 1.08 | 4.26 |  |  |  |  | 
O=C(O)c1ccccc1O [Salicylic acid] | None | 4.89 | 2.71 | higher permeation in the presence of mucus |  | not statistically significant |  | 
Nc1nc2c(ncn2COCCO)c(=O)[nH]1 [Acyclovir] | Reduced | 0.83 | 2.17 |  |  |  |  | 
CC(=O)Nc1cccc(-n2c(=O)n(C3CC3)c(=O)c3c(Nc4ccc(I)cc4F)n(C)c(=O)c(C)c32)c1 [Trametinib] | None |  |  |  |  |  | below the limit of detection | 0.001
CCn1cc(C(=O)O)c(=O)c2cc(F)c(N3CCNCC3)cc21 [Norfloxacin] | None | 1.61 | 1.7 |  |  |  |  | 
CC(C)(C)NC(=O)[C@@H]1C[C@@H]2CCCC[C@@H]2CN1C[C@@H](O)[C@H](Cc1ccccc1)NC(=O)[C@H](CC(N)=O)NC(=O)c1ccc2ccccc2n1 [Saquinavir] | Reduced | 0.01 | 0.08 |  |  |  |  | 
CCN(CC)CCOC(=O)c1ccc(N)cc1 [Procaine] | Reduced | 0.6 | 2.67 |  |  |  |  | 
COC(=O)N[C@H](C(=O)N[C@@H](Cc1ccccc1)[C@@H](O)CN(Cc1ccc(-c2ccccn2)cc1)NC(=O)[C@@H](NC(=O)OC)C(C)(C)C)C(C)(C)C [Atazanavir] | None | 0.13 | 0.19 |  |  |  |  | 
CCOC(=O)C1=C(COCCN)NC(C)=C(C(=O)OC)C1c1ccccc1Cl (centres unmarked) [Amlodipine] | None | 0.35 | 0.66 |  |  |  |  | 
CC(C)(C)NCC(O)c1ccc(O)c(CO)c1 (centres unmarked) [Salbutamol] | Reduced | 0.64 | 2.34 |  |  |  |  | 
CO[C@H]1/C=C/O[C@@]2(C)Oc3c(C)c(O)c4c(O)c(c(/C=N/N5CCN(C)CC5)c(O)c4c3C2=O)NC(=O)/C(C)=C\C=C\[C@H](C)[C@H](O)[C@@H](C)[C@@H](O)[C@@H](C)[C@H](OC(C)=O)[C@@H]1C [Rifampicin] | None | 0.71 | 0.7 |  |  |  |  | 
CO[C@H]1/C=C/O[C@@]2(C)Oc3c(C)c(O)c4c(O)c(c5c(nc6cc(C)ccn65)c4c3C2=O)NC(=O)/C(C)=C\C=C\[C@H](C)[C@H](O)[C@@H](C)[C@@H](O)[C@@H](C)[C@H](OC(C)=O)[C@@H]1C [Rifaximin] | None | 0.08 | 0.09 |  |  |  |  | 
CC(C(=O)O)c1cccc(C(=O)c2ccccc2)c1 (centres unmarked) [Ketoprofen] |  |  |  | higher permeation in the presence of mucus |  |  |  | 
CC(C)Cc1ccc(C(C)C(=O)O)cc1 (centres unmarked) [Ibuprofen] | None | 1.2 | 0.94 | higher permeation in the presence of mucus |  | not statistically significant |  | 
colistin |  |  |  |  | strongly interact with mucins |  |  | 
C[C@H]1[C@H](NC(=O)/C(=N\OC(C)(C)C(=O)O)c2csc(N)n2)C(=O)N1S(=O)(=O)O [Aztreonam] | None | 0.17 | 0.18 |  |  |  |  | 
O=C(Nc1c(Cl)cncc1Cl)c1ccc(OC(F)F)c(OCC2CC2)c1 [Roflumilast] | None |  | 0.01 |  |  |  |  | 0.0079
